Tests used:
PDGF-R = PDGF-R (Homo sapiens, UniProt P09619); assay: PDGF-R ELISA; type: cell-based
From the text: A PDGF-R ELISA is described in International Patent Publication No. WO 96/40116, published December 19, 1996 by Tang et al.

EGFR = biological target: T1, EGFR (Homo sapiens, UniProt P00533); assay: EGFR ELISA assay (in vitro kinase activity, EGFR captured from A431 cell lysate); type: biochemical; parameters: concentration or dose not given beside the values
T1 construct: Add 7 ug A431 cell lysate per well (EGFR source); endogenous in cells; host or cells: A431
Method in brief: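 EGFR from A431 lysate was captured on anti-EGFR antibody-coated plates and preincubated with compounds for 30 min. Autophosphorylation ran 5 min with 3 uM ATP and 5 mM MnCl2 (final), stopped with 20 mM EDTA. Phosphotyrosine was detected by anti-pTyr ELISA with ABTS/H2O2, read at 410 nm.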

T1 sequence (P00533 25-1210): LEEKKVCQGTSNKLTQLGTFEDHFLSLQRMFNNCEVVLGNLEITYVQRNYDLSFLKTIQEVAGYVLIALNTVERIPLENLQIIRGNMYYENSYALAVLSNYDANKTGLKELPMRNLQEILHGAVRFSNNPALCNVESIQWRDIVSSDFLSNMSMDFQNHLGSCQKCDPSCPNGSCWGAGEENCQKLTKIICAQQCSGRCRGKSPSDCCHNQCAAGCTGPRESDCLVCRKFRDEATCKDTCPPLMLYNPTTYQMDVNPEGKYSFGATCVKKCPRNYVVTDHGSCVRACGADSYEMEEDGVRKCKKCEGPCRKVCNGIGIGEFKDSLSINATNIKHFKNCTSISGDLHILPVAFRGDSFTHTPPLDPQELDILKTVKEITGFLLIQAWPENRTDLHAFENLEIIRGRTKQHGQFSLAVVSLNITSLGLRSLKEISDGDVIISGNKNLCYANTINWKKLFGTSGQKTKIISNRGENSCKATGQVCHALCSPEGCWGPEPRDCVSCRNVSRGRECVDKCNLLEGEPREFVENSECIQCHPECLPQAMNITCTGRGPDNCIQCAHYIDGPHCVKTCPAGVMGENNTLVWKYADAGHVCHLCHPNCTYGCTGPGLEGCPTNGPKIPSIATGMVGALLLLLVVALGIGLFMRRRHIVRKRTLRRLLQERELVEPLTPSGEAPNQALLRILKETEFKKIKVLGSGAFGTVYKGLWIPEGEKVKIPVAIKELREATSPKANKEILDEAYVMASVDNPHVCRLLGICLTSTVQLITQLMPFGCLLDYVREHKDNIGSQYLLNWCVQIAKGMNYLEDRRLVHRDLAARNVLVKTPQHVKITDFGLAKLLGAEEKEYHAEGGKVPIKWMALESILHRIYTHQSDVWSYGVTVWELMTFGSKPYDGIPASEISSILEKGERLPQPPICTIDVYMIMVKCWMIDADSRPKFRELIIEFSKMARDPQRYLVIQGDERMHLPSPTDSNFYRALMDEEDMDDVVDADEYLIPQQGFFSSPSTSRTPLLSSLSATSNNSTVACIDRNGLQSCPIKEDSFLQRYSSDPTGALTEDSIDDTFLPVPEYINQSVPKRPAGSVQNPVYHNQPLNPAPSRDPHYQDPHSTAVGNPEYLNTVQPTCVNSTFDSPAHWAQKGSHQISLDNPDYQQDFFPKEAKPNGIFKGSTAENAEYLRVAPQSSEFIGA
Sequence of PDGF-R (P09619 33-1106, species assumed): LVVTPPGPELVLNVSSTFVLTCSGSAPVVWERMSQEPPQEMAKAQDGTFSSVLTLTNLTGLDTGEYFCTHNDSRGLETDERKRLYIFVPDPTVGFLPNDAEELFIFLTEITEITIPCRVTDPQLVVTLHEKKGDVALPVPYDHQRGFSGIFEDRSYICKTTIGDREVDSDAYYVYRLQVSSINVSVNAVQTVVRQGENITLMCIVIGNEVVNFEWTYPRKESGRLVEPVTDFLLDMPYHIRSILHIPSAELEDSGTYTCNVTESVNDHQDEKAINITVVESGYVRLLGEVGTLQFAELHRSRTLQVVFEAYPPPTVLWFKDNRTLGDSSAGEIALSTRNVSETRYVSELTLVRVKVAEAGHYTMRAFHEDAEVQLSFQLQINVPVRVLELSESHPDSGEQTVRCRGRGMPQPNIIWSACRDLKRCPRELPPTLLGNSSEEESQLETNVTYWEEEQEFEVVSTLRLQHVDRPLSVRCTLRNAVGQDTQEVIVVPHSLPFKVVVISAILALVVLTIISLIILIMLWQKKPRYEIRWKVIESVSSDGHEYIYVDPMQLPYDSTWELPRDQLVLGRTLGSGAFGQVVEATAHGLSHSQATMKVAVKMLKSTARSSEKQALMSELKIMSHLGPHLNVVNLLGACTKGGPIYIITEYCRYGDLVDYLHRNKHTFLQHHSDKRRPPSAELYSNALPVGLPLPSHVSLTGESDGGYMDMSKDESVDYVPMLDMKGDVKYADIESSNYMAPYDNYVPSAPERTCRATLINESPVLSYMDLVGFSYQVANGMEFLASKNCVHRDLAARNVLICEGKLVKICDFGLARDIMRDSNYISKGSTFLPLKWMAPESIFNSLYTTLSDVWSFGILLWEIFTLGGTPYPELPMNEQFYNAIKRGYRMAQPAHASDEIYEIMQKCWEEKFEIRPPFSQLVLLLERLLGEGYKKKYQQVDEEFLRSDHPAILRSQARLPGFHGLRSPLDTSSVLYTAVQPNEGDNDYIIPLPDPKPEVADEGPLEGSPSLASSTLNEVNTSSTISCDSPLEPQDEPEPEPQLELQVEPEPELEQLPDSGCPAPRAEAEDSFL

| SMILES | PDGF Kinase %Inhibition (PDGF-R) | Biochem EGFR %Inhibition (EGFR) |
| --- | --- | --- |
| CC(C)(C)c1cc(C=C2C(=O)Nc3c(Br)cc(Br)cc32)c(O)c(C(C)(C)C)c1 [10723/A11] | 41.5% | -4.0% |
| O=C1Nc2ccc(I)cc2C1=Cc1ccc(O)c(O)c1O [10723/B02] | 29.0% | 91.0% |
| COc1cccc(C=C2C(=O)Nc3ccc(I)cc32)c1O [10723/B03] | 14.5% | -5.0% |
| O=C1Nc2ccc(I)cc2C1=Cc1cc(O)c(O)c(Br)c1 [10723/B04] | 40.1% | 5.1% |
| CC(=O)Oc1ccc(C=C2C(=O)Nc3ccc(I)cc32)cc1OC(C)=O [10723/B05] | 15.2% | 36.4% |
| Cc1cc(C=C2C(=O)Nc3ccc(I)cc32)ccc1O [10723/B06] | 58.8% | 11.9% |
| O=C1Nc2ccc(I)cc2C1=Cc1ccccc1Br [10723/B07] | 24.9% | 28.8% |
| O=C1Nc2ccc(I)cc2C1=Cc1ccc(O)cc1O [10723/B08] | 56.1% | -0.4% |
| COc1ccc(C=C2C(=O)Nc3ccc(I)cc32)c(O)c1 [10723/B09] | 27.6% | -12.0% |
| O=C1Nc2ccc(I)cc2C1=Cc1cccc(Br)c1 [10723/B10] | 17.2% | 1.8% |
| CC(C)(C)c1cc(C=C2C(=O)Nc3ccc(I)cc32)c(O)c(C(C)(C)C)c1 [10723/B11] | 22.8% | -26.0% |
| Cc1c(Br)ccc2c1C(=Cc1ccc(O)c(O)c1O)C(=O)N2 [10723/C02] | 39.4% | 73.6% |
| COc1cccc(C=C2C(=O)Nc3ccc(Br)c(C)c32)c1O [10723/C03] | 42.9% | 5.9% |
| Cc1c(Br)ccc2c1C(=Cc1cc(O)c(O)c(Br)c1)C(=O)N2 [10723/C04] | 36.7% | 23.5% |
| CC(=O)Oc1ccc(C=C2C(=O)Nc3ccc(Br)c(C)c32)cc1OC(C)=O [10723/C05] | 22.8% | 35.2% |
| Cc1cc(C=C2C(=O)Nc3ccc(Br)c(C)c32)ccc1O [10723/C06] | 26.3% | -4.5% |
| Cc1c(Br)ccc2c1C(=Cc1ccccc1Br)C(=O)N2 [10723/C07] | 27.6% | -4.0% |
| Cc1c(Br)ccc2c1C(=Cc1ccc(O)cc1O)C(=O)N2 [10723/C08] | 29.0% | 45.0% |
| COc1ccc(C=C2C(=O)Nc3ccc(Br)c(C)c32)c(O)c1 [10723/C09] | 62.3% | 62.7% |
| Cc1c(Br)ccc2c1C(=Cc1cccc(Br)c1)C(=O)N2 [10723/C10] | 25.6% | -7.2% |
| Cc1c(Br)ccc2c1C(=Cc1cc(C(C)(C)C)cc(C(C)(C)C)c1O)C(=O)N2 [10723/C11] | 8.9% | -1.1% |
| CNS(=O)(=O)c1ccc2c(c1)C(=Cc1ccc(O)c(O)c1O)C(=O)N2 [10723/D02] | 22.1% | 63.2% |
| CNS(=O)(=O)c1ccc2c(c1)C(=Cc1cccc(OC)c1O)C(=O)N2 [10723/D03] | 8.2% | 33.5% |
| CNS(=O)(=O)c1ccc2c(c1)C(=Cc1cc(O)c(O)c(Br)c1)C(=O)N2 [10723/D04] | 31.8% | 45.1% |
| CNS(=O)(=O)c1ccc2c(c1)C(=Cc1ccc(OC(C)=O)c(OC(C)=O)c1)C(=O)N2 [10723/D05] | 8.2% | 3.7% |
| CNS(=O)(=O)c1ccc2c(c1)C(=Cc1ccc(O)c(C)c1)C(=O)N2 [10723/D06] | 6.2% | -7.4% |
| CNS(=O)(=O)c1ccc2c(c1)C(=Cc1ccccc1Br)C(=O)N2 [10723/D07] | 16.6% | 13.4% |

| SMILES | PDGF Kinase %Inhibition (PDGF-R) | Biochem EGFR %Inhibition (EGFR) |
| --- | --- | --- |
| CNS(=O)(=O)c1ccc2c(c1)C(=Cc1ccc(O)cc1O)C(=O)N2 [10723/D08] | 31.1% | 4.9% |
| CNS(=O)(=O)c1ccc2c(c1)C(=Cc1ccc(OC)cc1O)C(=O)N2 [10723/D09] | 21.4% | -3.8% |
| CNS(=O)(=O)c1ccc2c(c1)C(=Cc1cccc(Br)c1)C(=O)N2 [10723/D10] | 21.4% | -9.3% |
| CNS(=O)(=O)c1ccc2c(c1)C(=Cc1cc(C(C)(C)C)cc(C(C)(C)C)c1O)C(=O)N2 [10723/D11] | 24.9% | -6.2% |
| O=C1Nc2ccc(S(=O)(=O)Nc3ccc(C(F)(F)F)cc3)cc2C1=Cc1ccc(O)c(O)c1O [10723/E02] | 46.4% | 91.0% |
| COc1cccc(C=C2C(=O)Nc3ccc(S(=O)(=O)Nc4ccc(C(F)(F)F)cc4)cc32)c1O [10723/E03] | 47.1% | 8.3% |
| O=C1Nc2ccc(S(=O)(=O)Nc3ccc(C(F)(F)F)cc3)cc2C1=Cc1cc(O)c(O)c(Br)c1 [10723/E04] | 36.0% | 59.8% |
| CC(=O)Oc1ccc(C=C2C(=O)Nc3ccc(S(=O)(=O)Nc4ccc(C(F)(F)F)cc4)cc32)cc1OC(C)=O [10723/E05] | -4.9% | -15.6% |
| Cc1cc(C=C2C(=O)Nc3ccc(S(=O)(=O)Nc4ccc(C(F)(F)F)cc4)cc32)ccc1O [10723/E06] | 18.6% | 11.5% |
| O=C1Nc2ccc(S(=O)(=O)Nc3ccc(C(F)(F)F)cc3)cc2C1=Cc1ccccc1Br [10723/E07] | 14.5% | 38.1% |
| O=C1Nc2ccc(S(=O)(=O)Nc3ccc(C(F)(F)F)cc3)cc2C1=Cc1ccc(O)cc1O [10723/E08] | 26.3% | 52.6% |
| COc1ccc(C=C2C(=O)Nc3ccc(S(=O)(=O)Nc4ccc(C(F)(F)F)cc4)cc32)c(O)c1 [10723/E09] | 22.1% | 29.1% |
| O=C1Nc2ccc(S(=O)(=O)Nc3ccc(C(F)(F)F)cc3)cc2C1=Cc1cccc(Br)c1 [10723/E10] | 44.3% | -7.9% |
| CC(C)(C)c1cc(C=C2C(=O)Nc3ccc(S(=O)(=O)Nc4ccc(C(F)(F)F)cc4)cc32)c(O)c(C(C)(C)C)c1 [10723/E11] | 32.5% | -44.6% |
| O=C1Nc2ccc(S(=O)(=O)N3CCOCC3)cc2C1=Cc1ccc(O)c(O)c1O [10723/F02] | 1.3% | 70.4% |
| COc1cccc(C=C2C(=O)Nc3ccc(S(=O)(=O)N4CCOCC4)cc32)c1O [10723/F03] | 1.3% | 9.3% |
| O=C1Nc2ccc(S(=O)(=O)N3CCOCC3)cc2C1=Cc1cc(O)c(O)c(Br)c1 [10723/F04] | 21.4% | 17.5% |
| CC(=O)Oc1ccc(C=C2C(=O)Nc3ccc(S(=O)(=O)N4CCOCC4)cc32)cc1OC(C)=O [10723/F05] | -7.7% | -3.8% |
| O=C1Nc2ccc(CCCl)cc2C1=Cc1ccc(O)c(O)c1O [10723/G02] | 13.8% | 90.8% |
| COc1cccc(C=C2C(=O)Nc3ccc(CCCl)cc32)c1O [10723/G03] | 6.2% | 18.5% |
| O=C1Nc2ccc(CCCl)cc2C1=Cc1cc(O)c(O)c(Br)c1 [10723/G04] | 21.4% | 16.7% |
| CC(=O)Oc1ccc(C=C2C(=O)Nc3ccc(CCCl)cc32)cc1OC(C)=O [10723/G05] | 2.0% | 1.3% |
| Cc1cc(C=C2C(=O)Nc3ccc(CCCl)cc32)ccc1O [10723/G06] | -0.8% | -26.7% |
| O=C1Nc2ccc(CCCl)cc2C1=Cc1ccccc1Br [10723/G07] | -5.6% | 15.5% |
| O=C1Nc2ccc(CCCl)cc2C1=Cc1ccc(O)cc1O [10723/G08] | 7.5% | 0.1% |
| COc1ccc(C=C2C(=O)Nc3ccc(CCCl)cc32)c(O)c1 [10723/G09] | -2.9% | -32.6% |
